# Data reported in paper PMC7482817 (Theranostics, 2020).
# Experiments:
# [1] = tested on: E. coli B2 (mcr-1); assay: Broth microdilution MIC and checkerboard assay; assay type: cell-based, Escherichia coli; settings: for MIC of antibiotic in the absence of melatonin: antibiotic alone, MHB; for Potentiation (fold): degree of colistin potentiation in the presence of sub-MIC of melatonin and its analogues: colistin plus sub-MIC of the analogue
# [2] = tested on: E. coli B2 (mcr-1); assay: Time-dependent killing; assay type: cell-based, Escherichia coli; settings: melatonin 1 mg/mL or colistin 2 μg/mL alone, 24 h
# Procedure: Overnight E. coli B2 were diluted 1/1,000 in MHB, and incubated for 4 h (exponential phase) or 8 h (stationary phase) at 37 °C. […] At intervals, 100 μL aliquots were removed, centrifuged and resuspended in 100 μL sterile PBS. Subsequently, ten-fold serially diluted suspensions were plated on MHA plates and incubated overnight at 37 °C. Bacterial colonies were counted and the primary CFUs/mL was calculated.
# [3] = tested on: CHO cells; assay: Cytotoxicity, WST-1 assay; assay type: cell-based, Chinese Hamster; settings: colistin 0 to 128 μg/mL with melatonin 0 to 1,000 μg/mL, 24 h
# [4] = tested on: HEK293T cells; assay: Cytotoxicity, WST-1 assay; assay type: cell-based, Human; settings: colistin 0 to 128 μg/mL with melatonin 0 to 1,000 μg/mL, 24 h
# [5] = tested on: E. coli B2 (mcr-1); assay: Mouse peritonitis-sepsis infection model; assay type: in vivo, BALB/c mice; settings: single i.p. dose 1 h post-infection: colistin 10 mg/kg, melatonin 50 mg/kg, or combinations 5 + 50, 10 + 20, 10 + 50 mg/kg; 7 days; n = 8 or 9
# Procedure: 6-8-week-old female BALB/c mice were obtained from Comparative Medicine Centre of Yangzhou University (Jiangsu, China). Mice were adapted for one week prior to infection. Mouse studies were performed in accordance with the relevant guidelines and regulations (ID: SCXK-2017-0007). The laboratory animal usage license number is SCXK-2017-0044, certified by Jiangsu Association for Science and Technology.
# Female BALB/c mice (n = 8 or 9 per group) were intraperitoneally infected with a dose of 3.0 × 10^8 CFUs E. coli B2 suspension. […] Survival rates of mice were recorded for 7 days.
# [6] = tested on: E. coli B2 (mcr-1); assay: Membrane depolarization (DiSC3(5)); assay type: cell-based, Escherichia coli; settings: melatonin 0 to 1,000 μg/mL alone, or 500 μg/mL added to colistin; 1 h
# Procedure: (§1) Pretreatments of biochemical assays were performed using similar protocols as follows. Overnight E. coli B2 were washed, suspended in 5 mM HEPES (pH 7.0, plus 5 mM glucose) with an OD600 of 0.5, and incubated with fluorescent dyes for 30 min. […] After incubation at 37 °C for 1 hour, fluorescence intensity or absorbance or luminescence was measured by an Infinite M200 Microplate reader (Tecan).
# 3, 3-dipropylthiadicarbocyanine iodide (DiSC3(5), 0.5 μM) was applied to determine the membrane potential. Dissipated membrane potential of E. coli B2 was measured with the excitation wavelength of 622 nm and emission wavelength of 670 nm.
# [7] = tested on: E. coli B2; assay: Total ROS (DCFH-DA); assay type: cell-based, Escherichia coli; settings: 1 h, colistin with or without melatonin 500 μg/mL, or melatonin alone
# Procedure: as §1
# (§2) 2′,7′-dichlorodihydrofluorescein diacetate (DCFH-DA, 10 μM) was applied to monitor levels of ROS in E. coli B2 [38], following the manufacturer's instruction (Beyotime). Fluorescence intensity was measured with the excitation wavelength of 488 nm and emission wavelength of 525 nm. […] After incubation for one hour, the absorbance of lysis buffer at 570 nm was measured.
# [8] = tested on: E. coli B2; assay: H2O2 production (Hydrogen Peroxide Assay Kit); assay type: cell-based, Escherichia coli; settings: melatonin in single or combination treatment with colistin; 1 h
# Procedure: as §2
# [9] = tested on: mcr-1 expression in E. coli B2; assay type: cell-based, Escherichia coli; settings: melatonin with or without colistin
# [10] = tested on: E. coli; assay: Colistin intracellular accumulation by LC-MS/MS; assay type: cell-based, Escherichia coli; settings: co-incubation with varying doses of melatonin
# [11] = tested on: resistant bacteria; assay: Potentiation of colistin, summary over resistant strains; assay type: cell-based; settings: in resistant bacteria
# [12] = tested on: thirteen clinical colistin-resistant E. coli from elk
# [13] = tested on: E. coli B2; assay: Intracellular SOD activity; settings: colistin with or without melatonin 500 μg/mL, or melatonin alone
# [14] = tested on: E. coli MG1655; assay: Broth microdilution MIC and checkerboard assay; assay type: cell-based, Escherichia coli
# [15] = tested on: E. coli ATCC 25922; assay: Broth microdilution MIC and checkerboard assay; assay type: cell-based, Escherichia coli
# [16] = tested on: E. coli C3; assay: Broth microdilution MIC and checkerboard assay; assay type: cell-based, Escherichia coli
# [17] = tested on: E. coli G6; assay: Broth microdilution MIC and checkerboard assay; assay type: cell-based, Escherichia coli
# [18] = tested on: S. enterica ATCC 13076; assay: Broth microdilution MIC and checkerboard assay; assay type: cell-based
# [19] = tested on: E. coli G92 (mcr-1); assay: Broth microdilution MIC and checkerboard assay; assay type: cell-based, Escherichia coli
# [20] = tested on: E. coli CP131 (mcr-3); assay: Broth microdilution MIC and checkerboard assay; assay type: cell-based, Escherichia coli
# [21] = tested on: K. pneumoniae D120 (mcr-8); assay: Broth microdilution MIC and checkerboard assay; assay type: cell-based
# [22] = tested on: E. coli MG1655 (ΔkatE); assay: Broth microdilution MIC and checkerboard assay
# [23] = antibiotic plus sub-MIC melatonin
# [24] = antibiotic with melatonin, checkerboard, two biological replicates
# [25] = melatonin or analogue with colistin, checkerboard 8 × 8, 18 h, means of two biological replicates, synergy FIC index ≤ 0.5
compound,measurement,setting,value
CC1(C)S[C@@H]2[C@H](NC(=O)[C@H](N)c3ccccc3)C(=O)N2[C@H]1C(=O)O [Ampicillin],MIC of antibiotic in the absence of melatonin,"[1]; 18 h, 37 °C",128 mg/L
same,MIC of antibiotic in the presence of sub-MIC of melatonin,[1]; [23],128 mg/L
same,FIC index,[1]; [24],2
"NCCc1c[nH]c2ccc(O)cc12 [Analogue 1, Serotonin]",Potentiation (fold): degree of colistin potentiation in the presence of sub-MIC of melatonin and its analogues,[1],8 fold
same,FIC index,[1]; [25],0.188
"NCCc1c[nH]c2ccccc12 [Analogue 2, Tryptamine]",Potentiation (fold): degree of colistin potentiation in the presence of sub-MIC of melatonin and its analogues,[1],32 fold
same,FIC index,[1]; [25],0.156
"N[C@@H](Cc1c[nH]c2ccc(O)cc12)C(=O)O [Analogue 3, 5-Hydroxy-L-tryptophan]",Potentiation (fold): degree of colistin potentiation in the presence of sub-MIC of melatonin and its analogues,[1],2 fold
same,FIC index,[1]; [25],1
"N[C@@H](Cc1c[nH]c2ccccc12)C(=O)O [Analogue 4, L-tryptophan]",Potentiation (fold): degree of colistin potentiation in the presence of sub-MIC of melatonin and its analogues,[1],1 fold
same,FIC index,[1]; [25],2
"CC(=O)NCCc1c[nH]c2ccc(O)cc12 [Analogue 5, N-acetyl-5-hydroxytryptamine]",Potentiation (fold): degree of colistin potentiation in the presence of sub-MIC of melatonin and its analogues,[1],32 fold
same,FIC index,[1]; [25],0.094
"COc1ccc2[nH]cc(CCN)c2c1 [Analogue 6, 5-Methoxytryptamine]",Potentiation (fold): degree of colistin potentiation in the presence of sub-MIC of melatonin and its analogues,[1],32 fold
same,FIC index,[1]; [25],0.156
"c1ccc2[nH]ccc2c1 [Analogue 7, Indole]",Potentiation (fold): degree of colistin potentiation in the presence of sub-MIC of melatonin and its analogues,[1],8 fold
"NCCc1c[nH]cn1 [Analogue 8, Histamine]",FIC index,[1]; [25],>4
C[C@H]1c2cccc(O)c2C(=O)C2=C(O)[C@]3(O)C(=O)C(C(N)=O)=C(O)[C@@H](N(C)C)[C@@H]3[C@@H](O)[C@@H]21 [Doxycycline],MIC of antibiotic in the absence of melatonin,"[1]; 18 h, 37 °C",32 mg/L
same,MIC of antibiotic in the presence of sub-MIC of melatonin,[1]; [23],4 mg/L
same,Potentiation (fold): degree of antibiotics potentiation in the presence of sub-MIC of melatonin,[1]; [23],8 fold
same,FIC index,[1]; [24],0.250
"COc1ccc2[nH]cc(CCNC(C)=O)c2c1 [Melatonin, N-acetyl-5-methoxytryptamine]",killing of exponentially growing or stationary E. coli B2 by monotreatment,[2],neither melatonin nor colistin monotreatment killed
same,effect of melatonin on cytotoxicity of colistin,[3],slightly reduced the cytotoxicity of colistin
same,effect of melatonin on cytotoxicity of colistin,[4],slightly reduced the cytotoxicity of colistin
same,survival of mice after lethal infection,[5],did not prevent a lethal infection
same,cytoplasmic membrane potential (DiSC3(5)),[6],caused dissipation of the cytoplasmic membrane potential
same,total ROS level,[7],had no direct effect on the total ROS level and SOD activity
same,production of H2O2,[8],significantly promoted production of H2O2 in a dose-dependent manner
same,mcr-1 expression,[9],down-regulated in the presence of melatonin
same,intracellular colistin accumulation,[10],enhanced colistin in cells in a dose-dependent manner
same,potentiation with colistin,[11],8 to 32 fold
same,synergistic activity with colistin,[12],synergistic activity was also evidenced
same,SOD activity,[13],had no direct effect on the total ROS level and SOD activity
C[C@@H](O)[C@H]1C(=O)N2C(C(=O)O)=C(S[C@@H]3CN[C@H](C(=O)N(C)C)C3)[C@H](C)[C@H]12 [Meropenem],MIC of antibiotic in the absence of melatonin,"[1]; 18 h, 37 °C",32 mg/L
same,MIC of antibiotic in the presence of sub-MIC of melatonin,[1]; [23],32 mg/L
same,FIC index,[1]; [24],2
CO[C@H]1/C=C/O[C@@]2(C)Oc3c(C)c(O)c4c(O)c(c(/C=N/N5CCN(C)CC5)c(O)c4c3C2=O)NC(=O)/C(C)=C\C=C\[C@H](C)[C@H](O)[C@@H](C)[C@@H](O)[C@@H](C)[C@H](OC(C)=O)[C@@H]1C [Rifampicin],MIC of antibiotic in the absence of melatonin,"[1]; 18 h, 37 °C",128 mg/L
same,MIC of antibiotic in the presence of sub-MIC of melatonin,[1]; [23],128 mg/L
same,FIC index,[1]; [24],2
Colistin,MIC of antibiotic in the absence of melatonin,"[1]; 18 h, 37 °C",8 mg/L
same,MIC of antibiotic in the presence of sub-MIC of melatonin,[1]; [23],0.25 mg/L
same,MIC^a of colistin in the absence of melatonin and its analogues,"[1]; colistin alone, broth micro-dilution in MHB, 18 h, 37 °C",8 μg/mL
same,MIC of colistin in the presence of sub-MIC of melatonin,[14]; E. coli MG1655,0.0156 mg/L
same,MIC of colistin in the absence of melatonin,"[14]; E. coli MG1655, MCR-negative",0.0625 mg/L
same,MIC of colistin in the presence of sub-MIC of melatonin,[15]; E. coli ATCC 25922,0.125 mg/L
same,MIC of colistin in the absence of melatonin,"[15]; E. coli ATCC 25922, MCR-negative",0.5 mg/L
same,MIC of colistin in the presence of sub-MIC of melatonin,[16]; E. coli C3,0.0312 mg/L
same,MIC of colistin in the absence of melatonin,"[16]; E. coli C3, MCR-negative",0.125 mg/L
same,MIC of colistin in the presence of sub-MIC of melatonin,[17]; E. coli G6,0.0156 mg/L
same,MIC of colistin in the absence of melatonin,"[17]; E. coli G6, MCR-negative",0.125 mg/L
same,MIC of colistin in the presence of sub-MIC of melatonin,[18]; S. enterica ATCC 13076,0.0156 mg/L
same,MIC of colistin in the absence of melatonin,"[18]; S. enterica ATCC 13076, MCR-negative",0.125 mg/L
same,MIC of colistin in the presence of sub-MIC of melatonin,[19],0.5 mg/L
same,MIC of colistin in the absence of melatonin,[19]; MCR-positive,4 mg/L
same,MIC of colistin in the presence of sub-MIC of melatonin,[20],0.5 mg/L
same,MIC of colistin in the absence of melatonin,[20]; MCR-positive,4 mg/L
same,MIC of colistin in the presence of sub-MIC of melatonin,[21],0.5 mg/L
same,MIC of colistin in the absence of melatonin,[21]; MCR-positive,4 mg/L
same,killing of exponentially growing or stationary E. coli B2 by monotreatment,[2],neither melatonin nor colistin monotreatment killed
same,survival of mice after lethal infection,[5],did not prevent a lethal infection
same,MIC of colistin in the presence of sub-MIC of melatonin,[22],0.0078 mg/L
